Data from article PMC8205603, “Simultaneous Quantification of Pioglitazone and Omarigliptin in Rat Plasma by UHPLC-MS/MS and Its Application to Pharmacokinetic Study after Coadministration of the Two Drugs” (Journal of Analytical Methods in Chemistry, 2021).
Where a name gives a salt, the structure may show the parent alone. Read-outs that look alike come from different tables or passages of the source.

What was measured:
[1] = Stability of QC samples in rat plasma under different storage conditions; assay type: physicochemical; details: n = 5
Procedure: Different concentrations of working solutions were diluted 20 times with blank rat plasma to prepare corresponding calibration samples. Final concentrations of calibration samples were 5, 25, 50, 100, 250, 500, 1000, and 2000 ng/mL for pioglitazone and 10, 50, 100, 200, 500, 1000, 2000, and 4000 ng/mL for omarigliptin. Quality control (QC) samples (5, 15, 400, 1500 ng/mL for pioglitazone and 10, 30, 800, 3000 ng/mL for omarigliptin) were prepared as the same way. All plasma samples were stored at −20°C until analysis.
QC samples with low, medium, and high concentrations were analyzed under different conditions, such as kept at room temperature for 6 h, frozen and thawed for three cycles, and frozen at −20°C for 7 days. The postextraction samples were stored in autosampler at 10°C for 24 hours and then reinjected to evaluate the autosampler stability. The measured concentrations were calculated according to the following standard curve. RE (%) and RSD (%) should be within ±15%.

[2] = Pharmacokinetics study in rats after single or combined intragastric administration; assay type: in vivo, Sprague-Dawley rats; details: plasma, male SD rats
Procedure: Fifteen male Sprague-Dawley rats (6-8 weeks old, 190-210 g) were purchased from Jinan Pengyue Laboratory Animal Technology Co., Ltd. (Jinan, China). The animal certification number was 3707262011004044 and the production license number was SCXK (Lu) 20190003. Before the formal experiment, all rats were adaptively fed for one week at a temperature of 24 ± 2°C and a humidity of 55 ± 5% and then were randomly divided into three groups. In order to guarantee animal welfare, Animal Experiments Guidelines of Yantai Institute of Materia Medica (Yantai, China) was enforced. Pioglitazone and omarigliptin were suspended into 0.5% carboxymethyl cellulose sodium salt (CMC-Na) for intragastric administration. The dosage for rats was calculated based on the clinical dose. […] About 200 μL whole blood was collected into the heparinized tube at 0 min (pre-dose), 15 min, 30 min, 1 […], and 48 h and centrifugated immediately to collect plasma. All plasma samples were frozen at -20°C until analysis. Samples were processed and analyzed by the validated method. Data were acquired and analyzed by Xcalibur 4.1 software (Thermo Fisher Scientific, Massachusetts, USA). Pharmacokinetic parameters were calculated based on noncompartmental model using Phoenix WinNonlin 7.0 (Pharsight, Mountain View, CA). All data were shown as mean ± SD.

[3] = Auto-sampler stability (10°C for 24 h), postextraction samples, nominal 30 ng/mL omarigliptin
[4] = Auto-sampler stability (10°C for 24 h), postextraction samples, nominal 800 ng/mL omarigliptin
[5] = Auto-sampler stability (10°C for 24 h), postextraction samples, nominal 3000 ng/mL omarigliptin
[6] = Freeze (−20°C for 7 days), rat plasma, nominal 30 ng/mL omarigliptin
[7] = Freeze (−20°C for 7 days), rat plasma, nominal 800 ng/mL omarigliptin
[8] = Freeze (−20°C for 7 days), rat plasma, nominal 3000 ng/mL omarigliptin
[9] = Room temperature for 6 h, rat plasma, nominal 30 ng/mL omarigliptin
[10] = Room temperature for 6 h, rat plasma, nominal 800 ng/mL omarigliptin
[11] = Room temperature for 6 h, rat plasma, nominal 3000 ng/mL omarigliptin
[12] = Three freeze-thaw cycles, rat plasma, nominal 30 ng/mL omarigliptin
[13] = Three freeze-thaw cycles, rat plasma, nominal 800 ng/mL omarigliptin
[14] = Three freeze-thaw cycles, rat plasma, nominal 3000 ng/mL omarigliptin
[15] = male, Sprague-Dawley, rat, po, 2.6 mg/kg, omarigliptin 2.6 mg/kg in combination with pioglitazone 2.6 mg/kg, intragastric, n = 5
[16] = male, Sprague-Dawley, rat, po, 2.6 mg/kg, omarigliptin 2.6 mg/kg intragastric, single administration, n = 5
[17] = Auto-sampler stability (10°C for 24 h), postextraction samples, nominal 15 ng/mL pioglitazone
[18] = Auto-sampler stability (10°C for 24 h), postextraction samples, nominal 400 ng/mL pioglitazone
[19] = Auto-sampler stability (10°C for 24 h), postextraction samples, nominal 1500 ng/mL pioglitazone
[20] = Freeze (−20°C for 7 days), rat plasma, nominal 15 ng/mL pioglitazone
[21] = Freeze (−20°C for 7 days), rat plasma, nominal 400 ng/mL pioglitazone
[22] = Room temperature for 6 h, rat plasma, nominal 15 ng/mL pioglitazone
[23] = Room temperature for 6 h, rat plasma, nominal 400 ng/mL pioglitazone
[24] = Room temperature for 6 h, rat plasma, nominal 1500 ng/mL pioglitazone
[25] = Three freeze-thaw cycles, rat plasma, nominal 15 ng/mL pioglitazone
[26] = Three freeze-thaw cycles, rat plasma, nominal 400 ng/mL pioglitazone
[27] = Three freeze-thaw cycles, rat plasma, nominal 1500 ng/mL pioglitazone
[28] = male, Sprague-Dawley, rat, po, 2.6 mg/kg, pioglitazone 2.6 mg/kg in combination with omarigliptin 2.6 mg/kg, intragastric, n = 5
[29] = male, Sprague-Dawley, rat, po, 2.6 mg/kg, pioglitazone 2.6 mg/kg intragastric, single administration, n = 5

With CS(=O)(=O)n1cc2c(n1)CN([C@H]1CO[C@H](c3cc(F)ccc3F)[C@@H](N)C1)C2 [Omarigliptin] the “Accuracy (RE %)” value [1, 3] was 6.70%, the Measured concentrations [1, 3] was 32.01 ± 2.13 ng/mL and the “Accuracy (RE %)” value [1, 4] was −4.69%. For the same compound, the Measured concentrations [1, 4] was 762.47 ± 4.84 ng/mL, the “Accuracy (RE %)” value [1, 5] was −0.09% and the Measured concentrations [1, 5] was 2997.38 ± 9.39 ng/mL. For the same compound, the “Accuracy (RE %)” value [1, 6] was −4.79%, the Measured concentrations [1, 6] was 28.56 ± 0.11 ng/mL and the “Accuracy (RE %)” value [1, 7] was 0.28%. The Measured concentrations [1, 7] was 802.26 ± 4.01 ng/mL, the “Accuracy (RE %)” value [1, 8] was −10.36% and the Measured concentrations [1, 8] was 2689.12 ± 45.57 ng/mL. For the same compound, the “Accuracy (RE %)” value [1, 9] was 0.05%, the Measured concentrations [1, 9] was 30.01 ± 0.40 ng/mL and the “Accuracy (RE %)” value [1, 10] was −7.74%. For the same compound, the Measured concentrations [1, 10] was 738.06 ± 4.52 ng/mL, the “Accuracy (RE %)” value [1, 11] was −2.07% and the Measured concentrations [1, 11] was 2937.89 ± 7.68 ng/mL. For the same compound, the “Accuracy (RE %)” value [1, 12] was −5.13%, the Measured concentrations [1, 12] was 28.46 ± 0.25 ng/mL and the “Accuracy (RE %)” value [1, 13] was −0.68%. For the same compound, the Measured concentrations [1, 13] was 794.54 ± 9.37 ng/mL, the “Accuracy (RE %)” value [1, 14] was −10.98% and the Measured concentrations [1, 14] was 2670.56 ± 16.54 ng/mL. It also gave an AUC(0-inf) [2, 15] of 31300 ± 3820 ng·h/mL, an AUC(0-t) [2, 15] of 30400 ± 3760 ng·h/mL and a Cmax [2, 15] of 2520 ± 435 ng/mL. For the same compound, the Tmax ([2]; male, Sprague-Dawley, rat, po, 2.6 mg/kg, omarigliptin 2.6 mg/kg in combination with pioglitazone 2.6 mg/kg, intragastric, n = 5, read-out: t max) was 1.8 ± 0.4 h, the AUC(0-inf) [2, 16] was 37700 ± 4100 ng·h/mL and the AUC(0-t) [2, 16] was 36600 ± 4060 ng·h/mL. The Cmax [2, 16] was 3000 ± 394 ng/mL, the Tmax ([2]; male, Sprague-Dawley, rat, po, 2.6 mg/kg, omarigliptin 2.6 mg/kg intragastric, single administration, n = 5, read-out: t max) was 1.5 ± 0.7 h and the “t 1/2” value ([2]; omarigliptin 2.6 mg/kg intragastric, single administration, n = 5) was 10.9 ± 0.5 h.
For CCc1ccc(CCOc2ccc(CC3SC(=O)NC3=O)cc2)nc1 (stereo not drawn) [Pioglitazone, Pioglitazone hydrochloride], the “Accuracy (RE %)” value [1, 17] was 3.95%, the Measured concentrations [1, 17] was 15.59 ± 1.05 ng/mL and the “Accuracy (RE %)” value [1, 18] was −9.17%. The Measured concentrations [1, 18] was 363.31 ± 1.73 ng/mL, the “Accuracy (RE %)” value [1, 19] was −5.24% and the Measured concentrations [1, 19] was 1421.47 ± 7.30 ng/mL. The “Accuracy (RE %)” value [1, 20] was −8.77%, the Measured concentrations [1, 20] was 13.68 ± 0.10 ng/mL and the “Accuracy (RE %)” value [1, 21] was 0.24%. For the same compound, the Measured concentrations [1, 21] was 400.95 ± 1.64 ng/mL, the Measured concentrations ([1]; Freeze (−20°C for 7 days), rat plasma, nominal 1500 ng/mL pioglitazone) was 1328.31 ± 5.99 ng/mL and the “Accuracy (RE %)” value [1, 22] was −4.62%. The Measured concentrations [1, 22] was 14.31 ± 0.34 ng/mL, the “Accuracy (RE %)” value [1, 23] was −9.56% and the Measured concentrations [1, 23] was 361.75 ± 1.91 ng/mL. For the same compound, the “Accuracy (RE %)” value [1, 24] was −5.41%, the Measured concentrations [1, 24] was 1418.82 ± 5.26 ng/mL and the “Accuracy (RE %)” value [1, 25] was −8.12%. The Measured concentrations [1, 25] was 13.78 ± 0.11 ng/mL, the “Accuracy (RE %)” value [1, 26] was 0.52% and the Measured concentrations [1, 26] was 402.08 ± 1.11 ng/mL. The “Accuracy (RE %)” value [1, 27] was −11.10%, the Measured concentrations [1, 27] was 1333.57 ± 7.61 ng/mL and the AUC(0-inf) [2, 28] was 19000 ± 2600 ng·h/mL. The AUC(0-t) [2, 28] was 19000 ± 2580 ng·h/mL, the Cmax [2, 28] was 2460 ± 754 ng/mL and the half-life [2, 28] was 2.1 ± 0.2 h. For the same compound, the AUC(0-inf) [2, 29] was 17000 ± 2130 ng·h/mL, the AUC(0-t) [2, 29] was 16900 ± 2210 ng·h/mL and the Cmax [2, 29] was 2550 ± 475 ng/mL. It also gave a half-life [2, 29] of 2.8 ± 1 h, a Tmax ([2]; male, Sprague-Dawley, rat, po, 2.6 mg/kg, pioglitazone 2.6 mg/kg intragastric, single administration, n = 5, read-out: t max) of 1.8 ± 0.4 h and a Tmax ([2]; pioglitazone 2.6 mg/kg in combination with omarigliptin 2.6 mg/kg, intragastric, n = 5) of 2.0 ± 0 h.
